Measurements published in PubChem BioAssay (NCI).
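Step 1: Grow cells in 96-well plates. Step 2: Expose to compound for 48 hours at 5 concentrations. Step 3: Interpolate endpoints linearly; if unreached, use highest concentration. TGI: total growth inhibition.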

Columns and labels:
Assay in all cases: NCI tumour cell line growth inhibition, 48 h
KM12 colon = test system: KM12 colon
UACC-62 melanoma = test system: UACC-62 melanoma
MDA-MB-231 breast = test system: MDA-MB-231 breast
NCI-H23 lung = test system: NCI-H23 lung
SK-OV-3 ovarian = test system: SK-OV-3 ovarian
K-562 leukemia = test system: K-562 leukemia
A549 NSCLC = test system: A549 NSCLC
NCI-H522 lung = test system: NCI-H522 lung
RPMI-8226 leukemia = test system: RPMI-8226 leukemia
SK-MEL-5 melanoma = test system: SK-MEL-5 melanoma
SF-268 CNS = test system: SF-268 CNS
OVCAR-3 ovarian = test system: OVCAR-3 ovarian
XF 498 CNS = test system: XF 498 CNS
MALME-3M melanoma = test system: MALME-3M melanoma
DMS 114 small cell lung = test system: DMS 114 small cell lung
UACC-257 melanoma = test system: UACC-257 melanoma
NCI-H226 lung = test system: NCI-H226 lung
IGROV1 ovarian = test system: IGROV1 ovarian
SNB-19 CNS = test system: SNB-19 CNS
T-47D breast = test system: T-47D breast
SK-MEL-28 melanoma = test system: SK-MEL-28 melanoma
MDA-N = test system: MDA-N
SF-539 CNS = test system: SF-539 CNS
M14 melanoma = test system: M14 melanoma
HOP-92 NSCLC = test system: HOP-92 NSCLC
HCT-116 colon = test system: HCT-116 colon
OVCAR-4 ovarian = test system: OVCAR-4 ovarian
COLO 205 colon = test system: COLO 205 colon
HOP-18 NSCLC = test system: HOP-18 NSCLC
BT-549 breast = test system: BT-549 breast
OVCAR-8 ovarian = test system: OVCAR-8 ovarian
PC-3 prostate = test system: PC-3 prostate
MCF7 breast = test system: MCF7 breast
HOP-62 NSCLC = test system: HOP-62 NSCLC
DLD-1 colon = test system: DLD-1 colon
LXFL 529 NSCLC = test system: LXFL 529 NSCLC
SN12C renal = test system: SN12C renal
SNB-78 CNS = test system: SNB-78 CNS
EKVX NSCLC = test system: EKVX NSCLC
CCRF-CEM leukemia = test system: CCRF-CEM leukemia
SNB-75 CNS = test system: SNB-75 CNS
M19-MEL melanoma = test system: M19-MEL melanoma
TK-10 renal = test system: TK-10 renal
SF-295 CNS = test system: SF-295 CNS
HCC-2998 colon = test system: HCC-2998 colon
HS 578T breast = test system: HS 578T breast
HL-60(TB) leukemia = test system: HL-60(TB) leukemia
A498 renal = test system: A498 renal
KM20L2 colon = test system: KM20L2 colon
DU-145 prostate = test system: DU-145 prostate
OVCAR-5 ovarian = test system: OVCAR-5 ovarian
UO-31 renal = test system: UO-31 renal
NCI-H460 lung = test system: NCI-H460 lung
RXF-631 renal = test system: RXF-631 renal
MOLT-4 leukemia = test system: MOLT-4 leukemia
ACHN renal = test system: ACHN renal
786-0 renal = test system: 786-0 renal
U251 CNS = test system: U251 CNS
SW-620 colon = test system: SW-620 colon
DMS 273 small cell lung = test system: DMS 273 small cell lung
HT29 colon = test system: HT29 colon
RXF 393 renal = test system: RXF 393 renal
LOX IMVI melanoma = test system: LOX IMVI melanoma
HCT-15 colon = test system: HCT-15 colon
SR leukemia = test system: SR leukemia
SK-MEL-2 melanoma = test system: SK-MEL-2 melanoma
CAKI-1 renal = test system: CAKI-1 renal
MDA-MB-435 = test system: MDA-MB-435
P388 leukemia = test system: P388 leukemia
P388/ADR leukemia = test system: P388/ADR leukemia
SN12K1 renal = test system: SN12K1 renal
NCI/ADR-RES ovarian = test system: NCI/ADR-RES ovarian

COc1ccc2[nH]c(-c3ccc(O)cc3)cc(=O)c2c1
TGI (KM12 colon): 7.09 µM
TGI (UACC-62 melanoma): 38.9 µM
TGI (MDA-MB-231 breast): > 100 µM
TGI (NCI-H23 lung): 6.38 µM
TGI (SK-OV-3 ovarian): 7.49 µM
TGI (K-562 leukemia): > 48.3 µM
TGI (A549 NSCLC): > 59.4 µM
TGI (NCI-H522 lung): 1.35 µM
TGI (RPMI-8226 leukemia): 65.2 µM
TGI (SK-MEL-5 melanoma): 5.43 µM
TGI (SF-268 CNS): 20.6 µM
TGI (OVCAR-3 ovarian): 13.1 µM
TGI (XF 498 CNS): 13.7 µM
TGI (MALME-3M melanoma): > 29.1 µM
TGI (DMS 114 small cell lung): 1.49 µM
TGI (UACC-257 melanoma): > 81.2 µM
TGI (NCI-H226 lung): 4.81 µM
TGI (IGROV1 ovarian): > 62.8 µM
TGI (SNB-19 CNS): > 100 µM
TGI (T-47D breast): 79.6 µM
TGI (SK-MEL-28 melanoma): > 100 µM
TGI (MDA-N): > 100 µM
TGI (SF-539 CNS): 4.32 µM
TGI (M14 melanoma): 82.1 µM
TGI (HOP-92 NSCLC): 43.9 µM
TGI (HCT-116 colon): 10.4 µM
TGI (OVCAR-4 ovarian): > 100 µM
TGI (COLO 205 colon): 6.25 µM
TGI (HOP-18 NSCLC): > 29.9 µM
TGI (BT-549 breast): > 100 µM
TGI (OVCAR-8 ovarian): 13.1 µM
TGI (PC-3 prostate): > 100 µM
TGI (MCF7 breast): > 100 µM
TGI (HOP-62 NSCLC): > 58.8 µM
TGI (DLD-1 colon): > 100 µM
TGI (LXFL 529 NSCLC): > 100 µM
TGI (SN12C renal): 54.2 µM
TGI (SNB-78 CNS): > 100 µM
TGI (EKVX NSCLC): > 31.2 µM
TGI (CCRF-CEM leukemia): 21.9 µM
TGI (SNB-75 CNS): 1.7 µM
TGI (M19-MEL melanoma): > 86 µM
TGI (TK-10 renal): > 89.7 µM
TGI (SF-295 CNS): 6.71 µM
TGI (HCC-2998 colon): 3.4 µM
TGI (HS 578T breast): > 100 µM
TGI (HL-60(TB) leukemia): 2.16 µM
TGI (A498 renal): 0.725 µM
TGI (KM20L2 colon): > 18.6 µM
TGI (DU-145 prostate): > 100 µM
TGI (OVCAR-5 ovarian): > 82.8 µM
TGI (UO-31 renal): 98.2 µM
TGI (NCI-H460 lung): 9.35 µM
TGI (RXF-631 renal): > 100 µM
TGI (MOLT-4 leukemia): 79.4 µM
TGI (ACHN renal): > 100 µM
TGI (786-0 renal): > 58.1 µM
TGI (U251 CNS): 9.29 µM
TGI (SW-620 colon): > 100 µM
TGI (DMS 273 small cell lung): 0.717 µM
TGI (HT29 colon): 8.69 µM
TGI (RXF 393 renal): 5.16 µM
TGI (LOX IMVI melanoma): > 90 µM
TGI (HCT-15 colon): 7.03 µM

CCOC(OC1=C(C#N)CCCC1)C(CC)[Se]c1ccccc1 (configuration not stated)
TGI (SR leukemia): 31 µM
TGI (KM12 colon): > 100 µM
TGI (UACC-62 melanoma): 48 µM
TGI (NCI-H23 lung): 31.5 µM
TGI (SK-OV-3 ovarian): > 100 µM
TGI (K-562 leukemia): > 100 µM
TGI (A549 NSCLC): > 100 µM
TGI (NCI-H522 lung): 29 µM
TGI (RPMI-8226 leukemia): 50.1 µM
TGI (SK-MEL-5 melanoma): 33.5 µM
TGI (SF-268 CNS): 27.8 µM
TGI (OVCAR-3 ovarian): 54.6 µM
TGI (XF 498 CNS): 46.5 µM
TGI (MALME-3M melanoma): > 100 µM
TGI (DMS 114 small cell lung): 15.4 µM
TGI (UACC-257 melanoma): > 100 µM
TGI (NCI-H226 lung): 49.6 µM
TGI (IGROV1 ovarian): 74.1 µM
TGI (SNB-19 CNS): > 100 µM
TGI (SK-MEL-2 melanoma): 80.8 µM
TGI (SK-MEL-28 melanoma): 61.8 µM
TGI (SF-539 CNS): 31.7 µM
TGI (M14 melanoma): > 100 µM
TGI (CAKI-1 renal): > 100 µM
TGI (HOP-92 NSCLC): 61.3 µM
TGI (HCT-116 colon): 28.6 µM
TGI (OVCAR-4 ovarian): 43.2 µM
TGI (COLO 205 colon): 40.6 µM
TGI (HOP-18 NSCLC): 54.1 µM
TGI (OVCAR-8 ovarian): 34.7 µM
TGI (HOP-62 NSCLC): > 100 µM
TGI (DLD-1 colon): 34.4 µM
TGI (LXFL 529 NSCLC): 65.9 µM
TGI (SN12C renal): 36.9 µM
TGI (SNB-78 CNS): 89.7 µM
TGI (EKVX NSCLC): 69.2 µM
TGI (CCRF-CEM leukemia): 56.4 µM
TGI (SNB-75 CNS): 80.7 µM
TGI (M19-MEL melanoma): 48.7 µM
TGI (TK-10 renal): > 100 µM
TGI (SF-295 CNS): 98.7 µM
TGI (HCC-2998 colon): > 100 µM
TGI (HL-60(TB) leukemia): 42.9 µM
TGI (A498 renal): > 100 µM
TGI (KM20L2 colon): 62.1 µM
TGI (OVCAR-5 ovarian): 86.4 µM
TGI (UO-31 renal): > 100 µM
TGI (NCI-H460 lung): 34.2 µM
TGI (RXF-631 renal): 26.2 µM
TGI (MOLT-4 leukemia): 55.8 µM
TGI (ACHN renal): 95.5 µM
TGI (786-0 renal): 31.6 µM
TGI (U251 CNS): 44.3 µM
TGI (DMS 273 small cell lung): 24.9 µM
TGI (HT29 colon): 73.6 µM
TGI (RXF 393 renal): 31.1 µM
TGI (LOX IMVI melanoma): 21.9 µM
TGI (HCT-15 colon): 33 µM

CCCCCCCCCCCCCCCCCCOCC(COCCOCC[N+]1(CCCCCC(=O)[O-])CCCC1)Oc1ncccn1 (configuration not stated)
TGI (MDA-MB-435): 25 µM
TGI (SR leukemia): 37.1 µM
TGI (KM12 colon): 17.7 µM
TGI (UACC-62 melanoma): 14.2 µM
TGI (MDA-MB-231 breast): 21.7 µM
TGI (NCI-H23 lung): 18.1 µM
TGI (SK-OV-3 ovarian): 6.62 µM
TGI (K-562 leukemia): 14.2 µM
TGI (A549 NSCLC): 20 µM
TGI (NCI-H522 lung): 7.68 µM
TGI (RPMI-8226 leukemia): 8.96 µM
TGI (SK-MEL-5 melanoma): 15.2 µM
TGI (SF-268 CNS): 16.5 µM
TGI (OVCAR-3 ovarian): 20.4 µM
TGI (XF 498 CNS): 9.46 µM
TGI (MALME-3M melanoma): 32.8 µM
TGI (DMS 114 small cell lung): 7.1 µM
TGI (UACC-257 melanoma): 22.7 µM
TGI (NCI-H226 lung): 26.7 µM
TGI (IGROV1 ovarian): 3.83 µM
TGI (SNB-19 CNS): 16.5 µM
TGI (T-47D breast): 21.2 µM
TGI (SK-MEL-2 melanoma): 20 µM
TGI (SK-MEL-28 melanoma): 22.2 µM
TGI (MDA-N): 23.2 µM
TGI (SF-539 CNS): 15.8 µM
TGI (M14 melanoma): 22.7 µM
TGI (CAKI-1 renal): 22.7 µM
TGI (HOP-92 NSCLC): 5.93 µM
TGI (HCT-116 colon): 15.8 µM
TGI (OVCAR-4 ovarian): 4.22 µM
TGI (COLO 205 colon): 3.77 µM
TGI (HOP-18 NSCLC): 13.7 µM
TGI (BT-549 breast): 21.4 µM
TGI (OVCAR-8 ovarian): 15.9 µM
TGI (PC-3 prostate): 15 µM
TGI (MCF7 breast): 16.1 µM
TGI (HOP-62 NSCLC): 5.24 µM
TGI (DLD-1 colon): 14 µM
TGI (SN12C renal): 16.7 µM
TGI (SNB-78 CNS): 4.52 µM
TGI (EKVX NSCLC): 31.3 µM
TGI (CCRF-CEM leukemia): 13.9 µM
TGI (SNB-75 CNS): 12.8 µM
TGI (M19-MEL melanoma): 1.33 µM
TGI (TK-10 renal): 20.3 µM
TGI (SF-295 CNS): 27.2 µM
TGI (HCC-2998 colon): 17.4 µM
TGI (HS 578T breast): 28.8 µM
TGI (HL-60(TB) leukemia): 2.6 µM
TGI (A498 renal): 9.55 µM
TGI (KM20L2 colon): 14.5 µM
TGI (P388 leukemia): 1.02 µM
TGI (DU-145 prostate): 27.2 µM
TGI (OVCAR-5 ovarian): 13.9 µM
TGI (UO-31 renal): 23.6 µM
TGI (NCI-H460 lung): 16.8 µM
TGI (P388/ADR leukemia): 15.9 µM
TGI (MOLT-4 leukemia): 20.7 µM
TGI (SN12K1 renal): 17.7 µM
TGI (ACHN renal): 23.7 µM
TGI (786-0 renal): 22.2 µM
TGI (U251 CNS): 8.5 µM
TGI (SW-620 colon): 19.2 µM
TGI (DMS 273 small cell lung): 2.26 µM
TGI (HT29 colon): 13.7 µM
TGI (RXF 393 renal): 10.4 µM
TGI (NCI/ADR-RES ovarian): 24.1 µM
TGI (LOX IMVI melanoma): 13 µM
TGI (HCT-15 colon): 25.5 µM
